Data published in patent US20240158446A1, “CYCLIC COMPOUND HAVING SELECTIVE INHIBITORY ACTION ON KRAS OVER HRAS AND NRAS” (CHUGAI SEIYAKU KABUSHIKI KAISHA, priority 2021, published 2024).
pIC50, pKd: −log10 of the molar value. Read-outs that look alike come from different tables or passages of the source. *1 amine or outer side, *2 acyl side, *3 side chain or, on linkers, in order; H or OH if unused. Where a SMILES comes first, the peptide text is derived from it. Bridges are numbered along the chain shown (N, C = ends). [ ]: non-standard residue; d: D form. The star is where a group is joined. hPhe(3-Cl-4-CF3) = N[C@@H](CCc1ccc(C(F)(F)F)c(Cl)c1)C(=O)O; X5 = C=CCN([C@@H](Cc1ccc(C(F)(F)F)cc1)C(=O)[*:2])[*:1]; NEtPhe(4-Me) = CCN[C@@H](Cc1ccc(C)cc1)C(=O)O; NMeGly(cPent) = CN[C@H](C(=O)O)C1CCCC1; Hyp = O=C(O)[C@@H]1C[C@@H](O)CN1; NMeD = CN[C@@H](CC(=O)O)C(=O)O; NMeL = CN[C@@H](CC(C)C)C(=O)O; Morpholide = C1CN(*)CCO1; Ac5c = NC1(C(=O)O)CCCC1; Sar = CNCC(=O)O

Legend:
[1] = target: GDP-bound NRAS wild-type protein (Homo sapiens, UniProt P01111); assay: Binding to NRAS by surface plasmon resonance (SPR), Single Cycle Kinetics; conditions: for NRAS/KRAS (ratio of KD value for NRAS to KD value for KRAS): SPR, GDP-bound NRAS wild-type protein vs GDP-bound KRAS wild-type protein; for NRAS/KRAS (ratio of KD value with respect to GDP-bound NRAS wild-type protein to KD value with respect to KRAS): SPR KD ratio NRAS/KRAS, class symbols
Chain of GDP-bound NRAS wild-type protein (P01111 whole entry): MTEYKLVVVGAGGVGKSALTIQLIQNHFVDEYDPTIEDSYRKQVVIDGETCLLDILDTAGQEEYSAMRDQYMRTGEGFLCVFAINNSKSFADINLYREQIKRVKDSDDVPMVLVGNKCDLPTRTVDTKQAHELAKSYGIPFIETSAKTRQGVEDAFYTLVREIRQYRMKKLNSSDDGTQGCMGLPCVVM

[2] = tested on: human lung cancer strain NCI-H441;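 further: cell proliferation inhibition after four days measured by CellTiter-Glo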
[3] = target: GDP-bound KRAS wild-type protein (Homo sapiens, UniProt P01116); assay: Binding to KRAS by surface plasmon resonance (SPR), Single Cycle Kinetics; conditions: GDP-bound KRAS wild-type protein, read-out: KRAS KD
Chain of GDP-bound KRAS wild-type protein (P01116 whole entry): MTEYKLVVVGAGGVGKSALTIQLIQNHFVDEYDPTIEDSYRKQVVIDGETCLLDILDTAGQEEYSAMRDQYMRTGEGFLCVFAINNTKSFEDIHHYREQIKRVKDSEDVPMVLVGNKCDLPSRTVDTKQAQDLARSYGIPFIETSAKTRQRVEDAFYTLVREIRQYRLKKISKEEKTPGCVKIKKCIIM

[4] = target: GDP-bound HRAS wild-type protein (Homo sapiens, UniProt P01112); assay: Binding to HRAS by surface plasmon resonance (SPR), Single Cycle Kinetics; conditions: for HRAS/KRAS (ratio of KD value for HRAS to KD value for KRAS): SPR, GDP-bound HRAS wild-type protein vs GDP-bound KRAS wild-type protein; for HRAS/KRAS (ratio of KD value with respect to GDP-bound HRAS wild-type protein to KD value with respect to KRAS): SPR KD ratio HRAS/KRAS, class symbols
Chain of GDP-bound HRAS wild-type protein (P01112 whole entry): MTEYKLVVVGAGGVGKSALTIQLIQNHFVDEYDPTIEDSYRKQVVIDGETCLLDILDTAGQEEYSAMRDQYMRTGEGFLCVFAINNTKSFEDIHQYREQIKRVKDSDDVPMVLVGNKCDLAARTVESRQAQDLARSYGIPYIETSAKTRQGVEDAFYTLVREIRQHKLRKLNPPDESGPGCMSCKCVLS

[5] = SPR Single Cycle Kinetics, 1:1 binding model
[6] = SPR, Single Cycle Kinetics, 1:1 binding model

Compound | pIC50 [2] | pKd [3, 5] | pKd [3, 6] | pKd ([3]; SPR, Single Cycle Kinetics) | NRAS/KRAS (ratio of KD value for NRAS to KD value for KRAS) [1] | HRAS/KRAS (ratio of KD value for HRAS to KD value for KRAS) [4] | NRAS/KRAS (ratio of KD value with respect to GDP-bound NRAS wild-type protein to KD value with respect to KRAS) [1] | HRAS/KRAS (ratio of KD value with respect to GDP-bound HRAS wild-type protein to KD value with respect to KRAS) [4] | NRAS/KRAS (ratio of KD value for NRAS to KD value for KRAS) ([1]; KD ratio class) | HRAS/KRAS (ratio of KD value for HRAS to KD value for KRAS) ([4]; KD ratio class)
CCC[C@H]1C(=O)N[C@H]([C@@H](C)CC)C(=O)N2C[C@@H](OC)C[C@H]2C(=O)N(C)[C@H]2C/C=C\CCN(C2=O)[C@@H](Cc2ccc(C)cc2)C(=O)N(C)CC(=O)N[C@@H](CCc2ccc(C(F)(F)F)c(Cl)c2)C(=O)N2C[C@H](OCC)C[C@H]2C(=O)NC2(CCC2)C(=O)N(C)[C@@H](C2CCCC2)C(=O)N(C)[C@H](C(=O)N(C)C)CC(=O)N1C (stereo in doubt) [PP2552] | 7.52 | 9.55 | – | – | – | – | A (a compound having 10 or more and less than 20 is denoted as A) | B (a compound having 3 or more and less than 10 is denoted as B) | – | –
CCO[C@@H]1C[C@H]2C(=O)NC3(CC(C)(C)C3)C(=O)N(C)[C@@H](C(CC)CC)C(=O)N(C)[C@H](C(=O)N(C)C)CC(=O)N(C)[C@@H](COC)C(=O)N[C@@H]([C@@H](C)CC)C(=O)N(C3CC3)CC(=O)N(C)[C@H]3C/C=C\CCN(C3=O)[C@@H](CC3CCC(F)(F)CC3)C(=O)N(C)CC(=O)N[C@@H](CCc3ccc(Cl)c(Cl)c3)C(=O)N2C1 [PP2569] | 6.73 | 8.55 | – | – | – | – | AA (a compound having 20 or more is denoted as AA) | A (a compound having 10 or more and less than 20 is denoted as A) | – | –
CCO[C@@H]1C[C@H]2C(=O)NC3(CCC3)C(=O)N(C)[C@@H](C3CCCC3)C(=O)N(C)[C@H](C(=O)N(C)C)CC(=O)N(C)[C@@H](CC3CCCC3)C(=O)N[C@@H]([C@@H](C)CC)C(=O)N(C)CC(=O)N(C)[C@H]3C/C=C\CCN(C3=O)[C@@H](CC3CCCCC3)C(=O)N(C)CC(=O)N[C@@H](CCc3cc(F)c(C(F)(F)F)c(F)c3)C(=O)N2C1 [PP1472, (2S,8S,12R,14S,20S,23S,27S,30S,36S,38Z)-2-(cyclohexylmethyl)-20-cyclopentyl-27-(cyclopentylmethyl)-8-[2-[3,5-difluoro-4-(trifluoromethyl)phenyl]ethyl]-12-ethoxy-N,N,4,19,22,26,32,35-octamethyl-30-[(1S)-1-methylpropyl]-3,6,9,15,18,21,25,28,31,34,42-undecaoxo-spiro[1,4,7,10,16,19,22,26,29,32,35-undecazatricyclo[34.5.1.0^10,14]dotetracont-38-ene-17,1′-cyclobutane]-23-carboxamide] | 7.43 | – | 9.85 | – | – | – | – | – | A (a compound having 10 or more and less than 20 is denoted as A) | A (a compound having 10 or more and less than 20 is denoted as A)
CCCOC[C@H]1C(=O)N[C@@H]([C@@H](C)OCC)C(=O)N2CCC[C@H]2C(=O)N(C)[C@H]2C/C=C\CCN(C2=O)[C@@H](Cc2ccc(C)cc2)C(=O)N(C)CC(=O)N[C@@H](CCc2ccc(C(F)(F)F)c(OC)c2)C(=O)N2C[C@@H](C)C[C@H]2C(=O)NC2(CC(C)(C)C2)C(=O)N(C)[C@@H](C2CCCC2)C(=O)N(C)[C@H](C(=O)N(C)CC)CC(=O)N1C [PP2431] | 7.10 | – | – | 8.64 | A (a compound having 10 or more and less than 20 is denoted as A) | A (a compound having 10 or more and less than 20 is denoted as A) | – | – | – | –
CCOC[C@H]1C(=O)N[C@@H]([C@@H](C)CC)C(=O)N(C)CC(=O)N(C)[C@H]2C/C=C\CCN(C2=O)[C@@H](Cc2ccc(C(F)(F)F)cc2)C(=O)N(C)CC(=O)N[C@@H](CCc2ccc(C(F)(F)F)c(OC)c2)C(=O)N2C[C@@H](C)C[C@H]2C(=O)N(C)C2(CCC2)C(=O)N(C)[C@@H](C2CCCC2)C(=O)N(C)[C@H](C(=O)N(C)C)CC(=O)N1C [PP2359] | 8.12 | – | – | 10.70 | A (a compound having 10 or more and less than 20 is denoted as A) | B (a compound having 3 or more and less than 10 is denoted as B) | – | – | – | –
CC[C@H](C)[C@@H]1NC(=O)[C@H](CC(C)C)N(C)C(=O)C[C@@H](C(=O)N2CCOCC2)N(C)C(=O)[C@H](C2CCCC2)N(C)C(=O)C2(CCCC2)NC(=O)[C@@H]2C[C@@H](O)CN2C(=O)[C@H](CCc2ccc(C(F)(F)F)c(Cl)c2)NC(=O)CN(C)C(=O)[C@H](Cc2ccc(C)cc2)N(CC)C(=O)CN(C)C(=O)CN(C)C1=O [PP0041] ([NMeL]I[Sar][Sar][NEtPhe(4-Me)][Sar][hPhe(3-Cl-4-CF3)][Hyp][Ac5c][NMeGly(cPent)][NMeD]-Morpholide; lactam N-11) | 7.20 | 9.92 | – | – | B (a compound having 3 or more and less than 10 is denoted as B) | C (A compound having a KD ratio of 0.1 or more and less than 3 is denoted as C) | – | – | – | –

Further molecules by rising pIC50 [2], results first:

pIC50 [2] | pKd [3, 5] | pKd [3, 6] | pKd ([3]; SPR, Single Cycle Kinetics) | Compound | NRAS/KRAS (ratio of KD value for NRAS to KD value for KRAS) [1] | HRAS/KRAS (ratio of KD value for HRAS to KD value for KRAS) [4] | NRAS/KRAS (ratio of KD value with respect to GDP-bound NRAS wild-type protein to KD value with respect to KRAS) [1] | HRAS/KRAS (ratio of KD value with respect to GDP-bound HRAS wild-type protein to KD value with respect to KRAS) [4] | NRAS/KRAS (ratio of KD value for NRAS to KD value for KRAS) ([1]; KD ratio class) | HRAS/KRAS (ratio of KD value for HRAS to KD value for KRAS) ([4]; KD ratio class)
6.96 | – | 9.22 | – | CC[C@H](C)[C@@H]1NC(=O)[C@H](CC2CC2)N(C)C(=O)C[C@@H](C(=O)N(C)C)N(C)C(=O)[C@H](C2CCCC2)N(C)C(=O)C2(CCC2)NC(=O)[C@H](CC(F)F)N(C)C(=O)[C@H](CCc2cc(F)c(C(F)(F)F)c(F)c2)NC(=O)CN(C)C(=O)[C@H](Cc2ccc(C(F)(F)F)cc2)N2CC/C=C\C[C@@H](C2=O)N(C)C(=O)CN(C)C1=O [PP1403] | – | – | – | – | AA (a compound having 20 or more is denoted as AA) | A (a compound having 10 or more and less than 20 is denoted as A)
7.26 | 8.40 | – | – | C#CCN1CC(=O)N(C)[C@H]2C/C=C\CCN(C2=O)[C@@H](Cc2ccc(C)cc2)C(=O)N(C)CC(=O)N[C@@H](CCc2ccc(C(F)(F)F)c(Cl)c2)C(=O)N2C[C@H](OCC)C[C@H]2C(=O)NC2(CC(C)(C)C2)C(=O)N(C)[C@@H](C2CCCC2)C(=O)N(C)[C@H](C(=O)N(C)C)CC(=O)N(C)[C@@H](CCC)C(=O)N[C@@H](CC(C)C)C1=O [PP2526] | – | – | A (a compound having 10 or more and less than 20 is denoted as A) | B (a compound having 3 or more and less than 10 is denoted as B) | – | –
7.36 | – | 9.68 | – | CCO[C@@H]1C[C@H]2C(=O)NC3(CCC3)C(=O)N(C)[C@@H](C3CCCC3)C(=O)N(C)[C@H](C(=O)N3CCCC3)CC(=O)N(C)[C@@H](CC3CC3)C(=O)N[C@@H]([C@@H](C)CC)C(=O)N(C)CC(=O)N(C)[C@H]3C/C=C\CCN(C3=O)[C@@H](Cc3ccc(C)cc3)C(=O)N(C)CC(=O)N[C@@H](CCc3cc(F)c(C(F)(F)F)c(F)c3)C(=O)N2C1 [PP1409] | – | – | – | – | A (a compound having 10 or more and less than 20 is denoted as A) | A (a compound having 10 or more and less than 20 is denoted as A)
7.80 | – | – | 9.72 | CCCOC[C@H]1C(=O)N[C@@H]([C@@H](C)CC)C(=O)N(C)CC(=O)N(C)[C@H]2C/C=C\CCN(C2=O)[C@@H](Cc2ccc(C)cc2)C(=O)N(C)CC(=O)N[C@@H](CCc2ccc(C(F)(F)F)c(Cl)c2)C(=O)N2C[C@H](OCC)C[C@H]2C(=O)NC2(CC(C)(C)C2)C(=O)N(C)[C@@H](C2CCCC2)C(=O)N(C)[C@H](C(=O)N(C)CC)CC(=O)N1C [PP2469] | A (a compound having 10 or more and less than 20 is denoted as A) | B (a compound having 3 or more and less than 10 is denoted as B) | – | – | – | –
7.98 | 9.60 | – | – | C=CCN1C(=O)CN(C)C(=O)CN(C)C(=O)[C@H]([C@@H](C)CC)NC(=O)[C@H](CC(C)C)N(C)C(=O)C[C@@H](C(=O)N2CCOCC2)N(C)C(=O)[C@H](C2CCCC2)N(C)C(=O)C2(CCCC2)NC(=O)[C@@H]2CCCN2C(=O)[C@H](CCc2ccc(C(F)(F)F)c(Cl)c2)NC(=O)CN(C)C(=O)[C@@H]1Cc1ccc(C(F)(F)F)cc1 [PP0128] ([NMeL]I[Sar][Sar][X5][Sar][hPhe(3-Cl-4-CF3)]P[Ac5c][NMeGly(cPent)][NMeD]-Morpholide; lactam N-11) | C (A compound having a KD ratio of 0.1 or more and less than 3 is denoted as C) | C (A compound having a KD ratio of 0.1 or more and less than 3 is denoted as C) | – | – | – | –
8.30 | – | 10.04 | – | CC[C@H](C)[C@@H]1NC(=O)[C@H](CC2CCC2)N(C)C(=O)C[C@@H](C(=O)N(C)C)N(C)C(=O)[C@H](C2CCCC2)N(C)C(=O)C2(CCCC2)NC(=O)[C@@H]2CCCN2C(=O)[C@H](CCc2ccc(C(F)(F)F)c(Cl)c2)NC(=O)CN(C)C(=O)[C@H](Cc2ccc(C(F)(F)F)cc2)N2C[C@H](C)CC[C@@H](C2=O)N(C)C(=O)CN(C)C1=O [PP1342] | – | – | – | – | B (a compound having 3 or more and less than 10 is denoted as B) | B (a compound having 3 or more and less than 10 is denoted as B)
8.31 | – | 10.26 | – | CCO[C@@H]1C[C@H]2C(=O)NC3(CCC3)C(=O)N(C)[C@@H](C3CCCC3)C(=O)N(C)[C@H](C(=O)N3CCOCC3)CC(=O)N(C)[C@@H](CC)C(=O)N[C@@H]([C@@H](C)CC)C(=O)N(C)CC(=O)N(C)[C@H]3C[C@@H](C)[C@@H](C)CN(C3=O)[C@@H](Cc3ccc(C(F)(F)F)cc3)C(=O)N(C)CC(=O)N[C@@H](CCc3ccc(C(F)(F)F)c(Cl)c3)C(=O)N2C1 [PP1360] | – | – | – | – | A (a compound having 10 or more and less than 20 is denoted as A) | B (a compound having 3 or more and less than 10 is denoted as B)
